Source: patent US10040788B2, “1,3,4-thiadiazole compounds and their use in treating cancer” (AstraZeneca AB, priority 2014, dated 2018)

Columns and labels:
NCI-H1703 cells = test: GLS Cell Proliferation Assay (NCI-H1703); assay type: cell-based, human; conditions: Homo sapiens, 120 h; NCI-H1703 cells, 5 days incubation; geometric mean where repeated; read-out: Assay c) GLS Cell Proliferation Assay
NCI-H3122 xenograft = test: Mouse Xenograft Model, monotherapy (NCI-H3122); assay type: in vivo; conditions: Female Harlan Nude mice, NCI-H3122 s.c., 50 mg/kg once daily peroral for 17 days
Description: Female Harlan Nude mice were transplanted s.c. with human NSCLC NCI-H3122 cells to determine the in-vivo anti-tumour activity of GLS inhibitors. 5×10^6 cells in 50% matrigel (BD Bioscience) were injected s.c. on the left flank of the animals. Animals were randomised into groups of 10-15 when tumours reached a volume of ˜200-300 mm^3 and treatment commenced. […] Tumours were measured twice weekly by calliper and volume of tumours calculated using elliptical formula (π/6×width×width×length). Statistical significance was evaluated using a one tailed, t-test. Example 2 was formulated in a 1% Polysorbate 80 and pH adjusted with 1M HCL to a final pH concentration of pH3.5. Data is presented as mean tumour volume with calculated mean standard error bars.

NCI-H1703 xenograft = test: Mouse Xenograft Model, combination therapy (NCI-H1703); assay type: in vivo; conditions: Male Scid mice, NCI-H1703 s.c.
Description: Male Scid mice were transplanted s.c. with human NSCLC NCI-H1703 cells (ATCC-CRL-5889) to determine the in-vivo anti-tumour activity of GLS inhibitors. 1×10^7 cells in 50% matrigel (BD Bioscience) were injected s.c. on the left flank of the animals.
Animals were randomised into groups of 10-12 when tumours reached a volume of ˜200-300 mm^3 and treatment commenced. […] Tumours were measured twice weekly by calliper and volume of tumours calculated using elliptical formula (π/6×width×width×length). Statistical significance was evaluated using a one tailed, t-test. Taxotere® (Sanofi) was formulated in a physiological saline. Example 2 was formulated in a 1% Polysorbate 80 and pH adjusted with 1M HCL to a final pH concentration of pH3.5. Data is presented as mean tumour volume with calculated mean standard error bars.

`CO[C@H](C(=O)Nc1nnc(N[C@@H]2CCN(c3cccnn3)C2)s1)c1ccccc1` [Example 2(a), (2S)-2-Methoxy-2-phenyl-N-[5-[[(3R)-1-pyridazin-3-ylpyrrolidin-3-yl]amino]-1,3,4-thiadiazol-2-yl]acetamide] was tested, and the IC50 (NCI-H1703 cells) was 4.85 nM, the “Tumour growth (mean tumour volume), FIG. 2” value (NCI-H3122 xenograft) was “inhibition of growth in-vivo” and the “Tumour growth (mean tumour volume), FIG. 3” value (NCI-H1703 xenograft; 100 mg/kg once daily peroral for 16 days in combination with once weekly i.v. Taxotere, compared to Taxotere monotherapy) was “slight regression”. For the same compound, the “Tumour growth (mean tumour volume), FIG. 3” value (NCI-H1703 xenograft; 100 mg/kg once daily peroral for 16 days, monotherapy) was “inhibition of growth in-vivo”.
